Data on 1 compound can be found in article PMC10403574, “Discovery of a pyrrole-pyridinimidazole derivative as novel SIRT6 inhibitor for sensitizing pancreatic cancer to gemcitabine” (Cell Death & Disease, 2023).

Assay [1] has as its target SIRT6 (Homo sapiens, UniProt Q8N6T7). The assay can be described thus: Biolayer interferometry (BLI) binding. On the set-up: The human full-length SIRT6 gene was inserted into the prokaryotic expression vector (pET-28a (+)); inferred from the pET-28a(+) vector, Ni-NTA purification and Ni-NTA biosensor loading); made in house; host or cells: Escherichia coli BL21 (DE3). The conditions noted are these: Octet RED, Ni-NTA biosensors, 25 °C. How it is done: Binding assays were performed using Ni-NTA biosensors on the Octet® Red96 system (ForteBio, Menlo Park, CA) in 96-well microplates and measuring changes wavelength shift (in nm) over time (s). All steps were carried out at 25 °C with the plate shaking speed of 1000 rpm. The total working volume was 200 μL in 96-well microplate (Greiner Bio-one, Germany). The SIRT6 protein and compounds were diluted with phosphate-buffered saline (PBS, pH 7.4). Ni-NTA biosensors were prewetted for at least 10 min in PBS prior to the assay. Afterwards, the Ni-NTA biosensors were immobilized for 180 s with 200 μL culture containing 20 μg/mL SIRT6. After loading, sensors were washed in PBS buffer for another 120 s and transferred to wells containing different concentrations of compound 8a (0, 12.5, 25, 50, 100 μM) for binding. Finally, the dissociation step was carried out in kinetic buffer for 180 s. The assay data were processed and calculated using the ForteBio Octet RED analysis software.

Assay [2] has as its target HDAC9 (Homo sapiens, UniProt Q9UKV0). The experiment in a line: Deacetylation activity selectivity, HDAC9. The class given is biochemical. From the text:
(§1) Based on the above results, 8a was further investigated in this study. […] To further evaluate the selectivity of 8a for SIRT6, we examined the effect of 8a on the deacetylation activity of other HDAC family members, including HDAC1-HDAC11, SIRT1-SIRT3 and SIRT5. […] Furthermore, to confirm binding of 8a to SIRT6 in cells, we carried out the cellular thermal shift assay (CETSA). The CETSA approach builds on the thermal shift assay concept where ligand binding to its target protein enhances the target protein stability. We observed that the thermal stability of SIRT6 increased after 8a treatment (Figs. 2c, d).

For assay [3], the system named is BXPC-3 cells. The experiment in a line: Western blot of BXPC-3 cells. The class given is cell-based. How it is done: Cells were harvested and lysed in a lysis buffer (solarbio, R0010) supplementing 1 mM PMSF and protease inhibitor (TargetMol, USA). […] The blocked membrane was incubated with primary antibodies:SIRT6 (1:1000, Cell Signaling Technology, Cat#12486S, RRID:AB_2636969), Histone H3 Antibody (1:1000, Cell Signaling Technology, Cat#9715S, RRID:AB_331563), β-Actin (1:2000, Cell Signaling Technology, Cat#4970S, RRID:AB_2223172), Cleaved caspases-3 (1:1000, Cell Signaling Technology, Cat#9661S, RRID:AB_2341188), Cleaved Caspase-9 (Asp315) (1:1000, Cell Signaling Technology, Cat#20750S,RRID:AB_2798848), Cleaved PARP (1:1000, Cell Signaling Technology, Cat#5625S, RRID:AB_10699459), AKT (1:1000, Cell Signaling Technology, Cat#9272S, RRID:AB_329827), Phospho-AKT (Ser473) (D9E) (1:1000, Cell Signaling Technology, Cat#4060S, RRID:AB_2315049), ERK1/2 (1:1000, Cell Signaling Technology, Cat#4695S, RRID:AB_390779), Phospho-p44/42 MAPK (ERK1/2) (Thr202/Tyr204) (1:1000, Cell Signaling Technology, Cat#4370S, RRID:AB_2315112), Cyclin D1 (E3P5S) (1:1000, Cell Signaling Technology, Cat#55506 S, RRID:AB_2827374), Phospho-mTOR(Ser2448) (1:1000,Cell Signaling Technology, Cat#5536S, RRID:AB_10691552), Phospho-p70S6Kinase (Thr421/Ser424) (1:1000, Cell Signaling Technology, Cat#9204 S, RRID:AB_2265913), Phospho-Histone H2A.X (Ser139) (1:1000, Cell Signaling Technology, Cat#9718S, RRID:AB_2118009) at 4 °C overnight. After being washed with TBST, the membranes were incubated with horseradish peroxidase-conjugated secondary antibodies at room temperature for 1 h. Then, the membranes were detected by Tanon 5200 (Tanon, Beijing, China).

In assay [4] the test system is SIRT6 mutants (E140A/R195A, T184A/S191A/P193A/E283A, E22A and D63A). The assay can be described thus: FDL assay on other SIRT6 mutants. The conditions noted are these: three mutants. It counts as biochemical, human. How it is done:
(§2) Fluor-De-Lys (FDL) assays were used for the examination of the deacetylation activities of sirtuins as described previously. For the detection of SIRT6 activity, the 50-μL reaction mixture contained 5 μM SIRT6, 2.5 mM NAD^+ (β-Nicotinamide adenine dinucleotide hydrate, Sigma, N1636), 75 μM RHKK-Ac-AMC (GL Biochem, Shanghai), compounds/DMSO, and assay buffer. The reactions were incubated at 37 °C for 2 h, added 50 μL stop solution (40 mM nicotinamide, 6 mg/mL trypsin) at 25 °C for 30 min. Fluorescence intensity was measured at an excitation wavelength of 360 nm and an emission wavelength of 460 nm. IC50 values were calculated in GraphPad Prism version 8.00.
To explore the interaction mechanism, we performed the molecular docking experiment between SIRT6 (PDB ID: 6QCJ) and 8a. […] 8a mainly formed hydrogen bond with the backbone amino group of D187 and the ribose hydroxyl group of the coenzyme NAD^+, and stabilized the whole system by hydrophobic interactions with key amino acids such as I8, V70, W71, F82 and F86 (Fig. 2g). To verify this binding model, the mutant (V70A and F86A) of SIRT6 was constructed by site mutation. […] Moreover, there were also some other potential binding pockets predicted by molecular docking (data not shown). Based on the prediction, we constructed other two SIRT6 mutants (E140A/R195A and T184A/S191A/P193A/E283A). […]

Assay [5] has as its target SIRT2 (Homo sapiens, UniProt Q8IXJ6). The assay can be described thus: Deacetylation activity selectivity, SIRT2. It counts as biochemical. The protocol: as §2, §1
Assay [6] addresses HDAC5 (Homo sapiens, UniProt Q9UQL6). The experiment in a line: Deacetylation activity selectivity, HDAC5. It counts as biochemical.
From the text: as §1

The target of assay [7] is HDAC2 (Homo sapiens, UniProt Q92769). The experiment in a line: Deacetylation activity selectivity, HDAC2. The class given is biochemical.
Chain of HDAC2 (Q92769 whole entry, species assumed): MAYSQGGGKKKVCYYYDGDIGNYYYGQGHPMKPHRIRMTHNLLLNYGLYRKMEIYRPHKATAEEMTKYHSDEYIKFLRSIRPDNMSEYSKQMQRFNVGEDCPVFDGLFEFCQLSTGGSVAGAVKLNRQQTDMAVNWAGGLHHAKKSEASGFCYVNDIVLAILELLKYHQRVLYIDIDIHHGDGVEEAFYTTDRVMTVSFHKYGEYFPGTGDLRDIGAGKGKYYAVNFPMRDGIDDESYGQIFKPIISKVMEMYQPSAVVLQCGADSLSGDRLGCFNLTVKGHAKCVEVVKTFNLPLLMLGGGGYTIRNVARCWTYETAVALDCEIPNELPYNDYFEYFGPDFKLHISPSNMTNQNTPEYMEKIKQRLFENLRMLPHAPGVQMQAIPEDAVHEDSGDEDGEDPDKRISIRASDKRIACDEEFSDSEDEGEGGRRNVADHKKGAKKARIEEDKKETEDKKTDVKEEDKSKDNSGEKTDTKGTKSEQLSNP
From the text: as §1

As a reminder, the Kd is the concentration at which binding is half-saturated. What is called IC50 is the concentration that gives 50% inhibition. The low end stands for higher potency, the high end for lower potency.

Chain of HDAC5 (Q9UQL6 whole entry, species assumed): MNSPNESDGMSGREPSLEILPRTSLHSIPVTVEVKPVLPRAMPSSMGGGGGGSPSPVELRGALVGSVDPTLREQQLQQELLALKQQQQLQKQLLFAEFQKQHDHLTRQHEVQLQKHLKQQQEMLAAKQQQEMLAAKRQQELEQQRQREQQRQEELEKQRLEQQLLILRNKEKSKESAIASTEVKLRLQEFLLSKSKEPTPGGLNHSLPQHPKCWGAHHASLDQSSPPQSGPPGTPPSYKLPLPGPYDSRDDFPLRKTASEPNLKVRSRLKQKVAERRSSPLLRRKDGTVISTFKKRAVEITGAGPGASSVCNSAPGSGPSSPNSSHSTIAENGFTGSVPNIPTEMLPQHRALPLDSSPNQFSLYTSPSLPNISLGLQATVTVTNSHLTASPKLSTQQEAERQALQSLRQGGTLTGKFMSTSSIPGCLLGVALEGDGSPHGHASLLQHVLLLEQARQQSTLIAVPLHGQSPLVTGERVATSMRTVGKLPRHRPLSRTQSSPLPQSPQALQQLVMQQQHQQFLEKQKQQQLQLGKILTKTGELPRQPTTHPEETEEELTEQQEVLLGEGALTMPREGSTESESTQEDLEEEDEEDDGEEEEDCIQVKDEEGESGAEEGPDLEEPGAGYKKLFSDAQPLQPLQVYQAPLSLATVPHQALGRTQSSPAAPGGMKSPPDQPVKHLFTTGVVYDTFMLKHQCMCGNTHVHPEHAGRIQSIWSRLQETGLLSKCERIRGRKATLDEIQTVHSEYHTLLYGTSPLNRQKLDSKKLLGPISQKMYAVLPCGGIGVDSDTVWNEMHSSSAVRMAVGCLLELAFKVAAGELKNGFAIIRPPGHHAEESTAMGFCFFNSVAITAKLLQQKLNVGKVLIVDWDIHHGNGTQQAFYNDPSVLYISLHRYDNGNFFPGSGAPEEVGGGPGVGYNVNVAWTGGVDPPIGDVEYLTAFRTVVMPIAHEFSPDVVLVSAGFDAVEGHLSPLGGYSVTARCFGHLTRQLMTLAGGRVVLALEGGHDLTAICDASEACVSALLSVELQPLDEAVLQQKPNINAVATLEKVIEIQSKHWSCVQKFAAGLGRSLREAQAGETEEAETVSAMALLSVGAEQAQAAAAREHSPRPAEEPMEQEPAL
Chain of SIRT2 (Q8IXJ6 whole entry, species assumed): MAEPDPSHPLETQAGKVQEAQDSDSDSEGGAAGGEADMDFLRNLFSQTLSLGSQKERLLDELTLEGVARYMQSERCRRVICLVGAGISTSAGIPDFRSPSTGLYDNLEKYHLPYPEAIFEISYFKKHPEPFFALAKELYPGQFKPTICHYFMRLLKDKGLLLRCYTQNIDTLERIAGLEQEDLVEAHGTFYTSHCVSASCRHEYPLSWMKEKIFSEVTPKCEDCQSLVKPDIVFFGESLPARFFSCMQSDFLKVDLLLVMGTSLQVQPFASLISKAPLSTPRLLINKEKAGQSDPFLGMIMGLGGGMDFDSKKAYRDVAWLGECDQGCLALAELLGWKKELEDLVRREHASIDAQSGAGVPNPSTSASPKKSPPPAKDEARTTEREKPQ
Chain of HDAC9 (Q9UKV0 whole entry, species assumed): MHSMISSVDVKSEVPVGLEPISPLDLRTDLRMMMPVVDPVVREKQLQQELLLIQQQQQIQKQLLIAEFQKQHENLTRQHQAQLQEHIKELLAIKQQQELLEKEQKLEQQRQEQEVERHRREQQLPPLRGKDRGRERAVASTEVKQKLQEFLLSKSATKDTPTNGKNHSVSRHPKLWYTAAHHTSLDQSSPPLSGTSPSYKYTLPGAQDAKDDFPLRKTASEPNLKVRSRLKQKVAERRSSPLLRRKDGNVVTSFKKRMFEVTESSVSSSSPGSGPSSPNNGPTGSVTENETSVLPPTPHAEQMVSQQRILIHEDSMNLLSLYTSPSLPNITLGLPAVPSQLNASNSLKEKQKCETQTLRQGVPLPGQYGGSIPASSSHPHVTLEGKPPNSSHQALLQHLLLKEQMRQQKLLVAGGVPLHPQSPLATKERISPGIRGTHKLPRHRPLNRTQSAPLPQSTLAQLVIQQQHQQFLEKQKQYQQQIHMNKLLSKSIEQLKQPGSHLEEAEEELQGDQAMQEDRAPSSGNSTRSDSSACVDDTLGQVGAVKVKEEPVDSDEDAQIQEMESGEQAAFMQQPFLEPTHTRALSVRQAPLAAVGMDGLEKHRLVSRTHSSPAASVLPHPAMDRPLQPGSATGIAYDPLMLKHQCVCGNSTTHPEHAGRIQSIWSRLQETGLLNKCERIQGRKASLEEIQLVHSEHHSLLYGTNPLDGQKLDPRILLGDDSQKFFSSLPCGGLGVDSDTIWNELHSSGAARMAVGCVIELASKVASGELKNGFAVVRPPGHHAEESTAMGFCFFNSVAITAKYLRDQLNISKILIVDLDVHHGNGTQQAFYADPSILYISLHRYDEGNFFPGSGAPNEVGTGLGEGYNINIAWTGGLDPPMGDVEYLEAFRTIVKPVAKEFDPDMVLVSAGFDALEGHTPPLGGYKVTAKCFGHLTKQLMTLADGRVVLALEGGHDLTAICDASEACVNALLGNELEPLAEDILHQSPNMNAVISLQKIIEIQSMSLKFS
Chain of SIRT6 (Q8N6T7 whole entry): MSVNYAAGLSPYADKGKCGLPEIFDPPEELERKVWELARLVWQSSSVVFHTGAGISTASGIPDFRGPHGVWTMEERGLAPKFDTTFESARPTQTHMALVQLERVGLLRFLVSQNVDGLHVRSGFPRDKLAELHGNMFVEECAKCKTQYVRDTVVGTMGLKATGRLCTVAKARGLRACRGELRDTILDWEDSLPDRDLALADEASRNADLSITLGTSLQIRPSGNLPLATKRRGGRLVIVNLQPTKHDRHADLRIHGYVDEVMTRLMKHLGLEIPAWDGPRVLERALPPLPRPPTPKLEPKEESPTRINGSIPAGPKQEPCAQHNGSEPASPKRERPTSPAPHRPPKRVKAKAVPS

For `Br.CN(C)C(SCCCCCCn1cnc2c(-c3cc(Br)c(Br)[nH]3)nccc21)=[N+](C)C.[Cl-]` [Compound 8a], the Kd in assay [1] was found to be 16 ± 0.313 µM. The IC50 in assay [2] is above 200 µM; in assay [5], 92.2 ± 1.95 µM; in assay [6], above 200 µM; in assay [7], above 200 µM. Further, the “cyclin D1 expression” value in assay [3] (BXPC-3, 48 h, dose-dependent) is “decreased”. Further, the “expression of cleaved-PARP, cleaved-Caspase3, and cleaved-Caspase9” value in assay [3] (BXPC-3, western blot) is recorded as “significantly up-regulated”. In assay [3] (BXPC-3, western blot), the “p-mTOR, p-P70S6K, p-AKT, and p-ERK” value is “significantly down-regulated”. For the same compound, the “acetylation level of H3K9” value in assay [3] (BXPC-3 cells, western blot, dose-dependent) is “increased”. In addition, the “effect of mutants on the inhibitory activity of 8a” value in assay [4] is recorded as “did not significantly affect”.
